{"source": "paper PMC10353061", "about": "(ACS Pharmacology & Translational Science, 2023)", "key": {"[1]": {"system": "Wnt/β-catenin signaling pathway", "experiment": "Topflash/Fopflash luciferase report assay in HCT116 cells", "type": "cell-based, human", "conditions": "30 μM", "source_text": "We synthesized derivatives 5–10 bearing 5-membered and 6-membered heterocyclic rings at the position 3′ or 4′ of the B phenyl ring. […] SW480 cells show higher Wnt activation compared to HCT116 cells.[28] […] In SW480 cells, compounds 5–10 were in the 1.75%(10)–7.32%(7) range of residual luciferase activity, except 6(28.46%), compared to 3(21.61%); in HCT116 cells, compounds 5–10 were in the 0.37%(7)–5.88%(5) range, compared to 3 (18.75%) (Table 1 and Figure 5).\nFigure 5 Residual luciferase activity (%) by compounds 5–10 and reference compound 3 in SW480 cells (left panel) and HCT116 cells (right panel). Data are represented as the mean ± SD of three independent experiments, each performed in triplicate.\nBriefly, the Topflash plasmid (Beyotime, Zhejiang, China) contains 7 TCF/LEF binding sites, while the Fopflash plasmid (Beyotime, Zhejiang, China) contains 6 mutated TCF/LEF binding sites, which are located in the upstream of the luciferase reporter. SW480 and HCT116 cell lines were cultured in 90% DMEM (HyClone, #SH30243.01) plus 10% fetal bovine serum (Gibco, #10270) and plasmocin (mpp-39-03, InvivoGen), respectively. The Topflash/Fopflash vector and plasmid pTK-renilla together were co-transfected to the cells. […] The Dual-Glo luciferase assay kit (Promega, #E1910) was used to measure the luminescence intensity (Figure 2)."}, "Myc": {"system": "Myc", "experiment": "Myc and β-catenin expression (western blot, qPCR) in LiCl-treated HCT116 cells", "type": "cell-based, human", "conditions": "HCT116, LiCl 50 mM, 24 h", "method": "To this end, HCT116 cells were treated for 24 h with 50 mM LiCl and increasing concentrations (10–50–100 μM) of the two compounds.\nFigure 7 Top panels. […] Vinculin was used as a loading control. […] Bottom panels. c-Myc mRNA levels were measured by qPCR and normalized to the expression of β-actin mRNA and expressed as fold change relative to the control sample. Results represent the mean ± SD of three independent experiments, each performed in triplicate. **p < 0.01, ***p < 0.001 as determined by ANOVA.\nBriefly, total proteins from the cells in each group were subjected to 12% denaturing sodium dodecyl sulfate-polyacrylamide gel electrophoresis (SDS-PAGE). The proteins were then transferred onto a poly(vinylidene fluoride) (PVDF) membrane (Millipore). […] After the membrane was fully washed, it was incubated with secondary antibodies at 37 °C for 45 min goat anti-rabbit IgG H&L (HRP) (ab97051), Abcam, MA. The membrane was washed with Tris-buffered saline/Tween-20 (TBST) 4 times at room temperature for 14 min each time. Next, the samples were exposed and imaged (Sigma-Aldrich Chemical) using the enhanced chemiluminescence (ECL) method (Pierce Biotechnology)."}, "MDA-MB-231 cells": {"system": "MDA-MB-231 cells", "experiment": "Cell proliferation by live-cell imaging (IncuCyte), MDA-MB-231 TNBC cells", "type": "cell-based", "conditions": "40 μM, 48 and 72 h", "source_text": "TNBC represents approximately 10–15% of all breast cancers and is the most aggressive subtype of breast cancer. Patients with TNBC have a poor outcome compared to the other subtypes of breast cancer. In the breast cancer tissue, β-catenin is overexpressed compared to the normal tissue. The overexpression of β-catenin is associated with TNBC and lymph node metastasis. […] There is a quest for the development of new therapies to treat TNBC. […] Effects on cell proliferation of MDA-MB-231 TNBC cells were evaluated by live-time cell imaging using the Incucyte S5 system.\n(§1) Figure 10 Inhibition of MDA-MB-231, HCC1806, and HCC1937 TNBC cell growth by compounds 5–10 and reference compounds 3, […], and iCRT3 at 40 μM. Cell growth inhibition was quantified using the IncuCyte cell-by-cell analysis software, by comparison with the growth of DMSO-treated cells at 72 h, set at 100% (mean ± SD, n = 3, one-way ANOVA, **p ≤ 0.01, ****p ≤ 0.0001).\n(§2) Cell proliferation of breast cancer cell lines upon continuous treatment with select compounds was evaluated by the real-time quantitative live-cell imaging system. MDA-MB-231 (1500 cells/well), HCC1806 (2000 cells/well), and HCC1937 (3000 cells/well) were seeded in 96-well plates, treated with increasing doses of selected compounds and images (5 images/well) were acquired every 8 h for 3 days at 10× magnification in an IncuCyte SX5 live-content imaging system (Essen Bioscience) at 37 °C with 5% CO2. Images were analyzed using IncuCyte cell-by-cell analysis software to detect and quantify live cells (phase-contrast). The number of cells at each time point was quantified using IncuCyte cell-by-cell analysis software, and cell growth was evaluated as the normalized ratio between counted cells at each time point normalized to those counted at time 0. Graph drawing and statistical analyses were performed in GraphPad Prism according to the statistical tests described in the figure legends."}, "HCC1937 cells": {"system": "HCC1937 cells", "experiment": "Cell proliferation by live-cell imaging (IncuCyte), HCC1937 TNBC cells", "type": "cell-based", "conditions": "40 μM, 72 h", "method": "As TNBC is a highly heterogeneous subgroup, including breast cancers with different molecular and phenotypic traits,[37] effects of compounds 5–10 on cell proliferation were also tested in additional TNBC cell lines, i.e., HCC1806 and HCC1937. As inhibitors of HCC1806 TNBC cells, compounds 5–10 were evaluated in parallel with compounds 3, ICG-001, and iCRT3 (Figures 10 and S12–S19, Supporting Information); as inhibitors of the HCC1937 TNBC cells, 5–10 were compared with 3 and iCRT3 (Figures 10, S20, and S21). Effects on cell proliferation were evaluated as above for the MDA-MB-231 TNBC cells at the latest time point of observation of 72 h.\nas §1, §2"}}}
{"smiles": "O=S(=O)(Nc1ccc(-c2ccccn2)cc1)c1ccc(Br)cc1", "note": "[Compound 9, 4-Bromo-N-(4-(pyridin-2-yl)phenyl)benzenesulfonamide]", "values": [{"measurement": "% Luciferase Activity HCT116 (residual)", "setting": "[1]", "value": 4.33, "unit": "%"}, {"measurement": "inhibition of Myc expression", "setting": "Myc; 10 μM", "value": "about 2.5 fold"}, {"measurement": "protein and mRNA levels of Myc", "setting": "Myc; 10–50–100 μM", "value": "significant dose-dependent inhibition"}, {"measurement": "β-catenin protein levels", "setting": "Myc; 10–50–100 μM", "value": "reduced only at the highest dose"}, {"measurement": "effect on MDA-MB-231 cell proliferation", "setting": "MDA-MB-231 cells", "value": "less effective"}, {"measurement": "effect on HCC1937 cell growth", "setting": "HCC1937 cells", "value": "less effective"}]}
